Assay results: patent publication US8765720B2, “Combination therapy for the treatment of multiple myeloma” (Cephalon, Inc., priority 2009, dated 2014)

Columns and labels:
[1] = tested on: MM1S cells; test: Cell viability assay (MTS assay), MM1S cells; format: cell-based, human; conditions: Homo sapiens, MM1.S, single-agent bortezomib 0.5 nM, 48 hours, read-out: inhibition of cell viability
Description: In vitro synergy between COMPOUND 1 and bortezomib or melphalan was assessed using the median effect method of Chou and Talalay (30). Combination indices (CIs) were calculated separately for each combination. […] CIs between 0.9 and 1.1 were considered to indicate additive drug effects (31).

[2] = in vitro; conditions: human
Text: The human myeloma cell line RPMI8226 was obtained from American Type Culture Collection (Rockville, Md.). The MM1S myeloma cell line was provided by Dr. Steven Rosen (Northwestern University, Chicago, Ill.). Normal peripheral blood mononuclear cells (PBMCs) were isolated by Histopaque® density gradient centrifugation, according to the manufacturer's protocol (Sigma-Aldrich, St. Louis, Mo.). Myeloma cell lines and PBMCs were maintained in RPMI 1640 (Omega Scientific, Tarzana, Calif.) supplemented with 10% fetal bovine serum, 2 mM L-glutamine, 100 IU/mL penicillin, 100 μg/mL streptomycin, and essential amino acids in an atmosphere of 5% carbon dioxide (CO2) at 37° C.
Cells were seeded at 10^5 cells/100 μL/well in 96-well plates and incubated for 24 hours. RPMI8226 and MM1S cells were cultured in the presence of vehicle, COMPOUND 1, bortezomib, melphalan, COMPOUND 1+bortezomib, or COMPOUND 1+melphalan for 48 hours. After the incubation period, cell viability was quantified using the CellTiter 96® AQueous Non-Radioactive Cell Proliferation Assay (Promega, Madison, Wis.). Each well was treated with MTS (3-(4,5-dimethylthiazol-2-yl)-5-(3-carboxymethoxyphenyl)-2-(4-sulfophenyl)-2H-tetrazolium, inner salt) for 1 to 4 hours, after which absorbance was recorded at 490 nm. The quantity of formazan product as measured by absorbance at 490 nm is directly proportional to the number of living cells in culture.
In order for therapy with two or more PIs to be feasible in vivo, the combination must spare non-neoplastic cells. […] A healthy donor's PBMCs were cultured for 48 hours in the presence of COMPOUND 1 alone, bortezomib alone, or both agents together, and cell viability was quantified by MTS assay.

[3] = tested on: RPMI8226 cells; test: Apoptotic assay by annexin V and propidium iodide staining; format: cell-based, human; conditions: 2.5 nM for each drug, 30 hours
Description: To quantify apoptosis in response to drug treatment, RPMI8226 cells (5×10^5 cells per well) were incubated with vehicle or PIs at 37° C. and 5% CO2 for 30 hours. As a positive control, cells were incubated with 250 ng/mL of actinomycin D for 24 or 48 hours. Cells were then washed twice with phosphate-buffered saline, resuspended in binding buffer (100 mM HEPES/NaOH, pH 7.5 containing 1.4 M NaCl and 25 mM CaCl2), and stained with fluorescein isothiocyanate (FITC)-conjugated annexin V and with the fluorescent dye propidium iodide (PrI), according to the manufacturer's protocol (BioVision, Mountain View, Calif.). For each drug treatment, 1×10^5 gated events were recorded. Cells negative for both PI and annexin V staining were considered live; annexin V-positive, PrI-negative cells were considered early apoptotic; annexin V-positive, PrI-positive cells were considered late apoptotic. Flow cytometric analyses were performed using a Beckman Coulter FC500 cytometer with Cytomics CXP software (Beckman Coulter, Fullerton, Calif.).

[4] = tested on: LAGκ-1A tumor; test: Intramuscular LAGκ-1A tumor xenograft model (serum hIgG, tumor volume); conditions: alone or together
Description: (§1) Six- to 8-week-old male severe combined immunodeficient (SCID) mice were obtained from the Jackson Laboratory (Bar Harbor, Me.) and maintained in a specific pathogen-free area in our animal resources facility. All animal studies were conducted according to protocols approved by the Institutional Animal Care and Use Committee. Animals were anesthetized with ketamine, xylazine, and isoflurane prior to surgery and were euthanized when tumors reached 2 cm in diameter.
(§2) Biopsy tissue was surgically implanted in the hind limbs of anesthetized SCID mice and passaged through succeeding generations (32).
(§3) Myeloma tumors (LAGκ-1A or LAGκ-1B) were excised from an anesthetized donor mouse, sectioned into 20 to 40 mm^3 pieces, and surgically implanted into the left superficial gluteal muscle of anesthetized naive SCID mice. Recipient mice received weekly injections of anti-asialo GM1 rabbit serum (Wako Bioproducts, Richmond, Va.) to further suppress immune activity. Mice were blindly assigned to one of the experimental groups, and treatment was initiated 7 to 21 days after tumor implantation. COMPOUND 1 was administered via oral gavage daily (0.5-5.0 mg/kg) or twice weekly (5-10 mg/kg). COMPOUND 1 was also administered twice weekly (W, F) via either IV injection (0.5-3.0 mg/kg) or oral gavage (10 mg/kg), as specified. Melphalan (1 mg/kg) was provided via weekly intraperitoneal (IP) injections (W). Bortezomib (0.5 mg/kg) was dispensed twice weekly (T, Th) via IV injection. Control treatment consisted of COMPOUND 1 diluent (3.2 mL 5% mannitol and 800 μL propylene glycol) alone.
Mice bearing MM tumors underwent weekly retro-orbital bleeds. Resulting samples were spun at 13,000 rpm for 30 minutes to isolate serum. The hIgG ELISA kit (Bethyl Laboratories, Montgomery, Tex.) was used according to the manufacturer's specifications. Absorbance at 450 nm with a reference wavelength of 550 nm was determined on a μQuant microplate spectrophotometer with KC Junior software (Bio-Tek Instruments, Winooski, Vt.). Data graphed are the mean±SEM with n=7-8 mice/group.
(§4) As a direct measurement of tumor growth, calipers were used to assess tumor volume weekly, and the formula for an ellipsoid volume was applied ( 4/3π×[width/2]^2×[length/2]).
(§5) Percent inhibition of tumor growth is represented as the tumor volume of the test drug group over the tumor volume of the untreated group (T/C). The optimal value is the minimal T/C ratio that reflects the maximal tumor growth inhibition achieved. The criterion for efficacy for the T/C ratio is ≦42%, according to National Cancer Institute (NCI) standard criteria (44).
(§6) Efficacy of drug therapy against tumors was standardized to the time (t) required for the untreated tumor to grow to a determined size based on the greatest difference in time to reach a tumor volume between the control and treatment group. This value can be represented as the growth delay (in days) between treated and control (tt−tc) (44).
(§7) Tumor growth and hIgG levels were analyzed in terms of treatment group means and standard error. Student's t-test was applied to determine the statistical significance of differences between treatment groups. Minimal significance level was P<0.05.

[5] = tested on: LAGκ-1B tumor; test: Intramuscular LAGκ-1B tumor xenograft model (tumor volume)
Description: as §1, §2
as §3, with “Melphalan (1 mg/kg) was provided via weekly intraperitoneal (IP) injections (W).” left out
as §4, §5, §6, §7

[6] = tested on: apoptosis-inducing factor (AIF); test: Immunohistochemical analysis of AIF expression in LAGκ-1B tumors; format: in vivo, SCID mice; conditions: COMPOUND 1 1 mg/kg, bortezomib 0.5 mg/kg, alone or both; tumors excised post-treatment
Description: LAGκ-1B tumors were fixed in 4% paraformaldehyde and cut into 5 μm sections. Briefly, sections were blocked with Tris-buffered saline with 0.05% Tween-20 (TBST) and 3% BSA for 1 hour at room temperature and then incubated overnight with a rabbit antibody against AIF (Sigma, St. Louis, Mo.). The sections were washed three times with TBST and treated with horse radish […] anti-rabbit antibody (KPL, Gaithersburg, Md.) diluted 1:500 in TBST at room temperature for 2 hours. The slides were washed three times in TBST and placed in 3-amino-9-ethylcarbazole (AEC) buffer for 5 minutes, and color was detected using an AEC kit (Dako, Glostrup, Denmark). Staining was documented using an Olympus BX51 microscope (Olympus Imaging America Inc., Center Valley, Pa.) and analyzed by Microsuite Biological Suite program (Olympus BX51).

[7] = tested on: CD138-negative MM cells; conditions: single agent; cited from earlier work
[8] = tested on: RPMI8226 cells; test: Cell viability assay (MTS assay), RPMI8226 cells; format: cell-based, human; conditions: Homo sapiens, RPMI-8226, 48 h, read-out: decrease in cell viability
Description: Combination indices (CIs) were calculated separately for each combination. […] CIs between 0.9 and 1.1 were considered to indicate additive drug effects (31).

[9] = bortezomib 0.5 mg/kg IV, COMPOUND 1 1 mg/kg IV, alone or together

| SMILES | cytotoxicity at 0.0005 µM [1] [%] | viability at 48 h, 9 nM [2] [%] | proportion of cells in early apoptosis (PrI−/Annexin V+) [3] | serum hIgG levels and tumor volume vs vehicle ([4]; COMPOUND 1 1 mg/kg IV, bortezomib 0.5 mg/kg IV, twice weekly) | days to tumor progression [5, 9] [days] | survival longer than vehicle-treated mice [5, 9] [%] | tumor growth vs vehicle ([5]; bortezomib 0.5 mg/kg IV, COMPOUND 1 1 mg/kg IV, alone or together, combination after 21 days P=0.0014) | drug-related / toxicity-related deaths ([5]; mouse, in vivo) | AIF expression vs vehicle-treated tumors [6] | effect on growth of CD138-negative MM cells [7] | cytotoxicity at 40 µM [8] [%] | serum hIgG levels and tumor volume vs vehicle ([4]; melphalan 1 mg/kg IP weekly, COMPOUND 1 1 mg/kg IV twice weekly, 3 weeks) | tumor volume ([5]; melphalan 3 mg/kg IP weekly, COMPOUND 1 1 mg/kg IV twice weekly, alone or together, three weeks) |
| --- | --- | --- | --- | --- | --- | --- | --- | --- | --- | --- | --- | --- | --- |
| CC(C)C[C@H](NC(=O)[C@H](Cc1ccccc1)NC(=O)c1cnccn1)B(O)O [bortezomib, [(1R)-3-methyl-1-({(2S)-3-phenyl-2-[(pyrazin-2-ylcarbonyl)amino]propanoyl}amino)butyl]boronic acid, reference compound] | ~16 | ~85 | 17.5 % of cells | only partially inhibited | 35 | 20 | only modestly suppresses | one death each | elevated AIF expression | little effect | – | – | – |
| N[C@@H](Cc1ccc(N(CCCl)CCCl)cc1)C(=O)O [melphalan, 4-[bis(2-chloroethyl)amino]-L-phenylalanine, reference compound] | – | – | – | – | – | – | – | – | – | – | ~30 | no effect | partially inhibited |
